According to US8729047B2, “Compositions for inhibiting redox-sensitive GTPases” (Board of Regents, The University of Texas System, priority 2010, dated 2014):
pKd: −log10 of the molar value. Like-named read-outs stand apart in the source and are kept apart here.

Legend:
Rac1 = Rac1 (Homo sapiens, UniProt P63000); assay: Co-IP ESI-MS of thioguanine nucleotide disulfide adduct in T cells; format: cell-based; parameters: endogenous in cells; conditions: for thioguanine nucleotide-Rac1 disulfide adduct: activated T cells, FIGS. 21, 27
Procedure: FIG. 21. Detection of 6-TGNP adduct from A7r5 and T cells. Experimental procedures using A7r5 (A and B) and T (C and D) cells, respectively, were identical to those of the experiments described in FIG. 19 and previous studies (Tiede et al. J. Clin. Invest. 111, 1133-1145 (2003); and Poppe et al. J. Immunol. 176, 640-651 (2006)). The cell extract was incubated with a monoclonal RhoA antibody (A and B) or a Rac1 antibody (C and D) coupled with resin. Resin was collected by centrifugation (5,000×g, 10 min), which was suspended in 50% methanol:0.1% formic acid. The protein portion was separated by brief centrifugation (3,000×g for 5 min), resuspended in a buffer containing 10 mM EDTA and 5 mM phosphate (pH 7.5), digested with trypsin for 10 h, and analyzed with MS. The MS peak at 1476.6 Da represents peptide-6-TGDP adduct; TC^20LLIVFSK-6-TGDP.
FIG. 27. Detection of 8-TGNP adduct from T and A7r5 cells. […] The indicated MS peak at 1476.6 Da represents peptide-8-TGDP adduct; TC^20LLIVFSK-8-TGDP (SEQ ID NO:4). The molecular weight of the peptide-8-TGDP adduct is exactly the same as that of the peptide-6-TGDP adduct.

RhoA = target: T1, RhoA (Homo sapiens, UniProt P61586); assay: Competitive binding assay, [3H]GDP-loaded Rho protein titrated with 6-TGDP (FIG. 16A)
T1 construct: made in house; host or cells: E. coli
Procedure: FIG. 16. Kinetic properties of RhoC with 6-TGDP in the presence or absence of a redox agent. All kinetic analyses are described elsewhere herein. (A) ^appKD values of Rac1, RhoA, RhoC, and RhoC C20S for 6-TGDP were estimated to be 7.9, 11.6, 11.8, and 11.2 μM, respectively. ^trueKD values of Rac1, RhoA, and RhoC for 6-TGDP were then calculated to be 5.1, 10.8, 11.1, and 10.5 μM, respectively, by using a compensation equation, ^trueKD for 6-TGDP=^appKD for 6-TGDP/(1+[[^3H]GDP]/^trueKD for GDP) (Heo, J., and Hong, I. (2010) Biochemistry 49, 3965-3976), in conjunction with the values given. […] The GDP dissociation rates from RhoC C20S by NO, .NO2, and N2O3 were estimated to be 0.02×10^−3, 0.05×10^−3, and 0.04×10^−3 s^−1, respectively. […] (D) ^appKD values of RhoC for [^3H]GDP in the presence or absence of DTT were estimated to be 22.4 μM and […], respectively. ^appKD values of C20S RhoC for [^3H]GDP in the presence or absence of DTT were determined to be 24.8 μM and 25.2 μM, respectively. […]
(a) A competitive binding assay was performed to determine the binding affinity of Rho GTPase and 6-TGDP. […] Each membrane was washed three times with the assay buffer, and radioactivity was determined using a Beckman-Coulter scintillation counter. The radioactivity of the sample (Rho protein-bound [^3H]GDP) was converted into, and thus plotted, as the fraction of mol GDP per mol total Rho protein. […]

T1 sequence (P61586 whole entry, species assumed): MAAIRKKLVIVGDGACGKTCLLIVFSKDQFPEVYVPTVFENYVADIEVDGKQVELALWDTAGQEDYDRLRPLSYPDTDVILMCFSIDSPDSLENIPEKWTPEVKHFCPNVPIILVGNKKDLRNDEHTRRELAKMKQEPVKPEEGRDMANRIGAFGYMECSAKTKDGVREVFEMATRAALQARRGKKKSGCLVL

Compound | MS peak representing 6-TGNP-Rac1 adduct (Rac1; T cells, both 6-TG and NO, intensity not truly quantitative) | thioguanine nucleotide-Rac1 disulfide adduct (Rac1) | pKd (RhoA; [3H]GDP-loaded Rho protein 1 μM titrated with 6-TGDP, read-out: appKD for 6-TGDP) | pKd (RhoA; calculated by compensation equation, read-out: trueKD for 6-TGDP)
Nc1nc2nc[nH]c2c(=S)[nH]1 [6-TG, 6-thioguanine] | increased | has been identified |  | 
Nc1nc2c(ncn2[C@@H]2O[C@H](COP(=O)(O)OP(=O)(O)O)[C@@H](O)[C@H]2O)c(=S)[nH]1 [6-TGDP, 6-thioguanosine diphosphate] |  |  | 4.94 | 4.97
Nc1nc2[nH]c(S)nc2c(=O)[nH]1 [8-TG, 2-amino-8-mercapto-1H-purin-6(9H)-one] |  | biologically inactive 8-TGNP-Rac1 disulfide adduct |  | 
